Key:
rat TRPV2-4M = target: T1, rat TRPV2-4M (Rattus norvegicus, UniProt Q9WUD2, F472S/L507M/L510T/Q530E); assay: Two-electrode voltage clamp, TRPV2-4M in oocytes; type: cell-based; conditions: RTx 100 nM, room temperature, ±60 mV
T1 construct: expressed in transfected cells; host or cells: Xenopus laevis oocytes
T1 sequence (Q9WUD2 1-761 F472S/L507M/L510T/Q530E): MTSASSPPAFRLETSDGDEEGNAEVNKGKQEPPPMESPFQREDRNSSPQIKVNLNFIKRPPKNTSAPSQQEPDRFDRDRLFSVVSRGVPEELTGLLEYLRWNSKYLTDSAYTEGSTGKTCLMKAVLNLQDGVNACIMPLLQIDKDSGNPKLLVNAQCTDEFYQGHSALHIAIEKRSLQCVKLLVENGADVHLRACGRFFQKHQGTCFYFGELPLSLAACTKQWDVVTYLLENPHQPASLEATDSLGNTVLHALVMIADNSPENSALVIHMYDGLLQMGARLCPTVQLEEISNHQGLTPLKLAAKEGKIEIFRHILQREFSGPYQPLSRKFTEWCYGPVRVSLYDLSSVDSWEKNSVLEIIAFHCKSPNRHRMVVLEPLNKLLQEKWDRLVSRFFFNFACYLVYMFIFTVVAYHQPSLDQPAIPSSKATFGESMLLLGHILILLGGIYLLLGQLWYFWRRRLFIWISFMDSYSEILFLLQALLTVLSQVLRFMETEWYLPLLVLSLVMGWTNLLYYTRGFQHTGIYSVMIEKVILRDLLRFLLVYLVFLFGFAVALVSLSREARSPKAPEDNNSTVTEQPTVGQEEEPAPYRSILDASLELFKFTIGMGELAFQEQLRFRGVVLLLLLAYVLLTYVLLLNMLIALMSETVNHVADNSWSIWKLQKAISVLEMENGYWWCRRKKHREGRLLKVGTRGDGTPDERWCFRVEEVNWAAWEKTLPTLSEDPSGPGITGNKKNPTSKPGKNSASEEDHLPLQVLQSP
Method: (§1) All channel constructs were expressed in Xenopus laevis oocytes and studied using the two-electrode voltage clamp technique (TEVC) following 1–4 days of incubation after cRNA injection. The animal care and experimental procedures were performed in accordance with the Guide for the Care and Use of Laboratory Animals and were approved by the Animal Care and Use Committee of the National Institute of Neurological Disorders and Stroke (Animal protocol number 1253–17). Oocytes were removed surgically and incubated with agitation for 1 hr in a solution containing (in mM) 82.5 NaCl, 2.5 KCl, 1 MgCl2, 5 HEPES, pH 7.6 (with NaOH), and collagenase (2 mg/ml; Worthington Biochemical, Lakewood, NJ). Defolliculated oocytes were injected with cRNA for each of the constructs and incubated at 17°C in a solution containing (in mM) 96 NaCl, 2 KCl, 1 MgCl2, 1.8 CaCl2, 5 HEPES, pH 7.6 (with NaOH), and gentamicin (50 μg/ml, GIBCO-BRL, Gaithersburg, MD). Oocyte membrane voltage was controlled using an OC-725C oocyte clamp (Warner Instruments, Hamden, CT). Data were filtered at 1–3 kHz and digitized at 20 kHz using pClamp software (Molecular Devices, Sunnyvale, CA) and a Digidata 1440A digitizer (Axon Instruments). Microelectrode resistances were 0.1–1 MΩ when filled with 3 M KCl. For recording TRP channel currents, the external recording solution contained (in mM) 100 KCl, 10 HEPES, pH 7.6 (with KOH). […]

TRPV3-6M + V587L = target: T2, TRPV3-6M + V587L (Mus musculus, UniProt Q8K424, A560T/F522S/H523E/L557M/Q580E/V587L/W521Y); assay: Two-electrode voltage clamp, TRPV3-6M + V587L, RTx concentrations; type: cell-based
T2 construct: expressed in transfected cells; host or cells: Xenopus laevis oocytes
T2 sequence (Q8K424 1-791 W521Y/F522S/H523E/L557M/A560T/Q580E/V587L): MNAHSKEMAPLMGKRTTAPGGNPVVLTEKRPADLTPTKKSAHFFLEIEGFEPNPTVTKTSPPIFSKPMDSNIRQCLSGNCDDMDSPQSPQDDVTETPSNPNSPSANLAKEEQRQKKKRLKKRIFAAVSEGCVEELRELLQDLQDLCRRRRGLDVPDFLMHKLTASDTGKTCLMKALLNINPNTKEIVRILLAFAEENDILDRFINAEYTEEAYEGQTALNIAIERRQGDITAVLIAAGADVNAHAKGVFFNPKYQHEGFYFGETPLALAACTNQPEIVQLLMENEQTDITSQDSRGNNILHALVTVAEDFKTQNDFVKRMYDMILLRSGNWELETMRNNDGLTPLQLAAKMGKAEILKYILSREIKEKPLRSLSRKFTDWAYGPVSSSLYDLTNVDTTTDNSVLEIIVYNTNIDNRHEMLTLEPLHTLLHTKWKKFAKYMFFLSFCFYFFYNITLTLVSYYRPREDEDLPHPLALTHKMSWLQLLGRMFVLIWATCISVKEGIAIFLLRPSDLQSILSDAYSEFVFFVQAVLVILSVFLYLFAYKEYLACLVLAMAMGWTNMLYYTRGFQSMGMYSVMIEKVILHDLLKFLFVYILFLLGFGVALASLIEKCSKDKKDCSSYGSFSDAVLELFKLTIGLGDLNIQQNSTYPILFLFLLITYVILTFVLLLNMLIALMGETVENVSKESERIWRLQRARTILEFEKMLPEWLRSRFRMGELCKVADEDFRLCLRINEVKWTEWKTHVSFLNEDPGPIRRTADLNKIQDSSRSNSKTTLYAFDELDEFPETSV
Method: as §1

## C=C(C)[C@]12C[C@@H](C)[C@@]34O[C@](Cc5ccccc5)(O[C@@H]1[C@@H]3C=C(COC(=O)Cc1ccc(O)c(OC)c1)C[C@]1(O)C(=O)C(C)=C[C@@H]41)O2 [RTx, resiniferatoxin]
Rat TRPV2-4M
  channel activation (current response): robust responses
TRPV3-6M + V587L
  dissociation of RTx: exceedingly slow

From paper PMC6333442, “Conserved allosteric pathways for activation of TRPV3 revealed through engineering vanilloid-sensitivity” (eLife, 2019)
